Source: patent US20240208997A1, “CYCLIC BENZIMIDAZOLE DERIVATIVES AS CGAS INHIBITORS” (Boehringer Ingelheim International GmbH, priority 2022, published 2024)

Biological target: cGAS (Homo sapiens, UniProt Q8N884)
Assay: Human cGAS enzyme assay (hcGAS IC50, in vitro), cGAMP formation by RapidFire MS
Type: biochemical
Set-up: HumancGAS (amino acid 1-522) with an N-terminal 6×-His-tag and SUMO-tag; 6xHis (N); SUMO (N); made in house; host or cells: E. coli BL21(DE3) pLysS
Settings: Table 1; 45 bp dsDNA-activated enzyme
Procedure: 6.1 Method: Human cGAS Enzyme Assay (hcGAS IC50 (In Vitro))
Human cGAS enzyme was incubated in the presence of a 45 base pair double stranded DNA to activate the enzyme and GTP and ATP as substrates. Compound activity was determined by measuring the effect of compounds on the formation of the product of the enzyme reaction, cGAMP, which is measured by a mass spectrometry method.
HumancGAS (amino acid 1-522) with an N-terminal 6×-His-tag and SUMO-tag was expressed in E. coli BL21(DE3) pLysS (Novagen) cells for 16 h at 18° C. Cells were lysed in buffer containing 25 mM Tris (pH 8), 300 mM NaCl, 10 mM imidazole, 10% glycerol, protease inhibitor cocktail (cOmplete™, EDTA-free, Roche) and DNase (5 μg/mL). […] Purified protein was concentrated to 1.7 mg/mL and stored at −80° C.
Compounds were delivered in 10 mM DMSO solution, serially diluted and transferred to the 384 well assay plate (Greiner #781201) using an Echo acoustic dispenser. Typically, 8 concentrations were used with the highest concentration at 10 μM in the final assay volume followed by ^˜1:5 dilution steps. DMSO concentration was set to 1% in the final assay volume. The 384 well assay plate contained 22 test compounds (column 1-22), and DMSO in column 23 and 24.
After the compound transfer, 15 μL of the enzyme-DNA-working solution (12 nM cGAS, 0.32 μM 45base pair DNA in assay buffer, 10 mM Tris pH 7.5/10 mM KCl/5 mM MgCl2/1 mM DTT) were added to each well from column 1-23 via a MultiDrop Combi dispenser. In column 24, 15 μl of assay buffer without enzyme/DNA were added as a low control.
The plates were then pre-incubated for 60 min at room temperature.
Following that, 10 μL of GTP (ThermoFisher #R0461)-ATP (Promega #V915B) mix in assay buffer were added to the assay plate (columns 1-24, 30 μM final concentration each) using a Multidrop Combi.
The plates were incubated again for 90 min at room temperature.
Following the incubation, the reaction was stopped by 80 μL of 0,1% formic acid in assay buffer containing 5 nM cyclic-di-GMP (Sigma #SML1228) used as internal standard for the mass spectrometry. The total volume/well was 105 μL.
The plates were centrifuged at 4000 rpm, 4° C., for 5 min.
The RapidFire autosampler was coupled to a binary pump (Agilent 1290) and a Triple Quad 6500 (ABSciex, Toronto, Canada). […] Aspiration time: 250 ms; Load time: 3000 ms; Elute time: 3000 ms; Wash volume: 500 μL.
The MS was operated in positive ion mode with HESI ion source, with a source temperature of 550 C, curtain gas=35, gas 1=65, and gas 2=80. Unit mass resolution in SRM mode. The following transitions and MS parameters (DP: declustering potential and CE: collision energy) for cGAMP and DicGMP were determined:
Internal standard: cyclic-di-GMP at 690.1/540, DP=130, CE=30.
The formation of cGAMP was monitored and evaluated as ratio to cyclic-di-GMP.
Data Evaluation and Calculation:
For data evaluation and calculation, the measurement of the low control was set as 0% control and the measurement of the high control was set as 100% control. The IC50 values were calculated using the standard 4 parameter logistic regression formula. Calculation: [y=(a−d)/(1+(x/c)^b)+d], a=low value, d=high value; x=conc M; c=1C50 M; b=slope

cGAS, sequence (Q8N884 whole entry): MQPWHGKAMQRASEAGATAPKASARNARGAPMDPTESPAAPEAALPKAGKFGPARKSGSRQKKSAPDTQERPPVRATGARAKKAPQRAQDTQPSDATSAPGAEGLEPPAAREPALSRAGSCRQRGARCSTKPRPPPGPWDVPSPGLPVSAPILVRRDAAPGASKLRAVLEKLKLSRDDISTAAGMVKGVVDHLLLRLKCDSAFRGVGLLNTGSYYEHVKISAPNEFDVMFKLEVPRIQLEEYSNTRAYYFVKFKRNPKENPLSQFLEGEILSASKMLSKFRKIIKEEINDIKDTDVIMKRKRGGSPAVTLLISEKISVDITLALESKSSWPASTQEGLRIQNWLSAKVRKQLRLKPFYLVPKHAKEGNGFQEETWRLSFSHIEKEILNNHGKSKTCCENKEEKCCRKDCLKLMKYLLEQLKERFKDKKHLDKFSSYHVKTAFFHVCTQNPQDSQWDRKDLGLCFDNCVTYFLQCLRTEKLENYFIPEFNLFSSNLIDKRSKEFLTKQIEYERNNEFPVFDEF

SMILES | IC50 [nM]
C[C@H]1CN2CC[C@@H]1n1c(nc3ccccc31)O[C@H]1C[C@@H](C(=O)O)N(C1)c1nc(nc3c1oc1cc(Cl)ccc13)C(F)(F)CCCOCC2=O [Example 1.22] | 2.7
O=C(O)[C@@H]1C[C@H]2CN1c1nc(nc3c1oc1ccccc13)COCCCCCC(=O)N1CCC(CC1)n1c(nc3cccc(F)c31)O2 [Example 5.01] | 5.5
O=C(O)[C@@H]1C[C@H]2CN1c1nc(nc3c1oc1ccccc13)OCCCCOC(=O)N1CCC(CC1)n1c(nc3ccccc31)O2 [Example 11.01] | 10
C[C@H]1CN2CC[C@@H]1n1c(nc3cc(Cl)ccc31)O[C@H]1C[C@@H](C(=O)O)N(C1)c1nc(nc3c1oc1ccccc13)CCOCCCC2=O [Example 1.02] | 2.8
O=C(O)[C@@H]1C[C@H]2CN1c1nc(nc3c1oc1ccccc13)COCCCC(F)(F)C(=O)N1CCC(CC1)n1c(nc3ccccc31)O2 [Example 8.01] | 5.6
C[C@H]1CN2CC[C@@H]1n1c(nc3ccccc31)O[C@H]1C[C@@H](C(=O)O)N(C1)c1nc(nc3c1oc1ccccc13)CCOCCCC2=O [Example 1.05] | 1.8
Cc1cccc2c1nc1n2[C@H]2CCN(C[C@@H]2C)C(=O)CCCCCC(F)(F)c2nc(c3oc4ccccc4c3n2)N2C[C@H](C[C@H]2C(=O)O)O1 [Example 1.28] | 11
C[C@@H]1CCCCC(=O)N2CCC(CC2)n2c(nc3ccccc32)O[C@H]2C[C@@H](C(=O)O)N(C2)c2nc1nc1c2oc2ccccc21 [Example 1.26] | 3.4
C[C@H]1CCCCC(=O)N2CCC(CC2)n2c(nc3ccccc32)O[C@H]2C[C@@H](C(=O)O)N(C2)c2nc1nc1c2oc2ccccc21 [Example 1.25] | 5.5
C[C@@H]1CN2CC[C@H]1n1c(nc3cc(Cl)ccc31)O[C@H]1C[C@@H](C(=O)O)N(C1)c1nc(nc3c1oc1ccccc13)CCOCCCC2=O [Example 1.01] | 14
C[C@H]1CN2CC[C@@H]1n1c(nc3ccccc31)O[C@H]1C[C@@H](C(=O)O)N(C1)c1nc(nc3c1oc1ccccc13)C(F)(F)COCCCC2=O [Example 4.01] | 1.7
C[C@H]1CN2CC[C@@H]1n1c(nc3ccccc31)O[C@H]1C[C@@H](C(=O)O)N(C1)c1nc(nc3c1oc1ccccc13)C(F)(F)CCCCC(F)(F)C2=O [Example 1.17] | 7.2
C[C@@H]1CC(=O)N2CCC(CC2)n2c(nc3ccccc32)O[C@H]2C[C@@H](C(=O)O)N(C2)c2nc(nc3c2oc2ccccc23)CCCO1 [Example 7.01] | 8.8
CC1CCc2nc(c3oc4ccccc4c3n2)N2C[C@H](C[C@H]2C(=O)O)Oc2nc3cc(Cl)ccc3n2[C@H]2CCN(C[C@@H]2C)C(=O)CCO1 (some centres unmarked) [Example 1.20] | 4.9
C[C@H]1CN2CC[C@@H]1n1c(nc3cc(Cl)ccc31)O[C@H]1C[C@@H](C(=O)O)N(C1)c1nc(nc3c1oc1ccccc13)COCCOCC2=O [Example 1.11] | 1.9
C[C@H]1CN2CC[C@@H]1n1c(nc3cc(F)ccc31)O[C@H]1C[C@@H](C(=O)O)N(C1)c1nc(nc3c1oc1ccccc13)C(F)(F)CCCCC(F)(F)C2=O [Example 1.18] | 3.9
C[C@H]1CN2CC[C@@H]1n1c(nc3ccccc31)O[C@H]1C[C@@H](C(=O)O)N(C1)c1nc(nc3c1oc1ccccc13)CCCC(C)(C)CCC2=O [Example 1.23] | 41
C[C@H]1CN2CC[C@@H]1n1c(nc3ccc(Cl)cc31)O[C@H]1C[C@@H](C(=O)O)N(C1)c1nc(nc3c1oc1ccccc13)C(F)(F)CCCCCC2=O [Example 1.13] | 6.1
C[C@H]1CN2CC[C@@H]1n1c(nc3ccccc31)O[C@H]1C[C@@H](C(=O)O)N(C1)c1nc(nc3c1oc1ccccc13)CCOCCOC2=O (mixture of isomers) [Example 12.01] | 8.9

SMILES | IC50 [nM]
O=C(O)[C@@H]1C[C@H]2CN1c1nc(nc3c1oc1ccccc13)CCCOCC(=O)N1CCC(CC1)n1c(nc3ccccc31)O2 [Example 9.01] | 7.5
C[C@H]1CN2CC[C@@H]1n1c(nc3cc(Cl)ccc31)O[C@H]1C[C@@H](C(=O)O)N(C1)c1nc(nc3c1oc1ccccc13)C(F)(F)OCCCCC2=O [Example 6.01] | 3.5
C[C@@H]1CN2CC[C@H]1n1c(nc3ccccc31)O[C@H]1C[C@@H](C(=O)O)N(C1)c1nc(nc3c1oc1ccccc13)CCCCCOC2=O [Example 10.01] | 54
C[C@H]1CN2CC[C@@H]1n1c(nc3cc(Cl)ccc31)O[C@H]1C[C@@H](C(=O)O)N(C1)c1nc(nc3c1oc1cc(F)ccc13)CCCCOCC2=O [Example 1.09] | 3.9
C[C@H]1CN2CC[C@@H]1n1c(nc3ccccc31)O[C@H]1C[C@@H](C(=O)O)N(C1)c1nc(nc3c1oc1ccccc13)CCCCCOC2=O [Example 10.02] | 34
C[C@H]1CN2CC[C@@H]1n1c(nc3ccccc31)O[C@H]1C[C@@H](C(=O)O)N(C1)c1nc(nc3c1oc1ccccc13)CCCCCC2=O [Example 1.19] | 3.8
C[C@H]1CN2CC[C@@H]1n1c(nc3ccccc31)O[C@H]1C[C@@H](C(=O)O)N(C1)c1nc(nc3c1oc1cc(Cl)ccc13)C(F)(F)CCCCCC2=O [Example 1.16] | 3.3
Cc1cccc2c1nc1n2[C@@H]2CCN(C[C@H]2C)C(=O)CCCCCC(F)(F)c2nc(c3oc4ccccc4c3n2)N2C[C@H](C[C@H]2C(=O)O)O1 [Example 1.27] | 100
C[C@H]1CN2CC[C@@H]1n1c(nc3ccccc31)O[C@H]1C[C@@H](C(=O)O)N(C1)c1nc(nc3c1oc1ccccc13)CCCCCN(C)C2=O [Example 13.01] | 34
C[C@H]1CN2CC[C@@H]1n1c(nc3cc(Cl)ccc31)O[C@H]1C[C@@H](C(=O)O)N(C1)c1nc(nc3c1oc1cc(Cl)ccc13)CCOCCCC2=O [Example 1.08] | 4.5
O=C(O)[C@@H]1C[C@H]2CN1c1nc(nc3c1oc1ccccc13)CCOCCCC(=O)N1CCC(CC1)n1c(nc3cc(F)ccc31)O2 [Example 1.03] | 5.6
C[C@H]1CN2CC[C@@H]1n1c(nc3ccccc31)O[C@H]1C[C@@H](C(=O)O)N(C1)c1nc(nc3c1oc1cc(Cl)ccc13)CCOCCCC2=O [Example 1.07] | 3.8
C[C@H]1CN2CC[C@@H]1n1c(nc3ccc(Cl)cc31)O[C@H]1C[C@@H](C(=O)O)N(C1)c1nc(nc3c1oc1ccccc13)CCOCCCC2=O [Example 1.06] | 3.2
C[C@H]1CN2CC[C@@H]1n1c(nc3cc(Cl)ccc31)O[C@H]1C[C@@H](C(=O)O)N(C1)c1nc(nc3c1oc1ccccc13)C(F)(F)CCCCCC2=O [Example 1.12] | 5.2
C[C@H]1CN2CC[C@@H]1n1c(nc3ccc(Cl)cc31)O[C@H]1C[C@@H](C(=O)O)N(C1)c1nc(nc3c1oc1ccccc13)COCCCCC2=O [Example 1.10] | 5
C[C@H]1CN2CC[C@@H]1n1c(nc3ccccc31)O[C@H]1C[C@@H](C(=O)O)N(C1)c1nc(nc3c1oc1ccccc13)C(F)(F)COCCCCC2=O [Example 3.01] | 2.1
C[C@H]1CN2CC[C@@H]1n1c(nc3cc(F)ccc31)O[C@H]1C[C@@H](C(=O)O)N(C1)c1nc(nc3c1oc1cc(F)ccc13)C(F)(F)CCCCCC2=O [Example 1.15] | 3.5
O=C(O)[C@@H]1C[C@H]2CN1c1nc(nc3c1oc1ccccc13)CCOCCCC(=O)N1CCC(CC1)n1c(nc3ccc(F)cc31)O2 [Example 1.04] | 4.5
C[C@H]1CN2CC[C@@H]1n1c(nc3cc(Cl)ccc31)O[C@H]1C[C@@H](C(=O)O)N(C1)c1nc(nc3c1oc1ccccc13)C(F)(F)CCCOCC2=O [Example 1.21] | 3.3
